Experimental data: patent US7268154B2, “Substituted triazole compounds” (Hoffman-La Roche Inc., priority 2005, dated 2007)

Biological target: T1, NK-3 receptor (HEK293 stably expressing NK3) (Homo sapiens, UniProt P29371)
T1 construct: expressed in transfected cells
T1 sequence (P29371 1-465): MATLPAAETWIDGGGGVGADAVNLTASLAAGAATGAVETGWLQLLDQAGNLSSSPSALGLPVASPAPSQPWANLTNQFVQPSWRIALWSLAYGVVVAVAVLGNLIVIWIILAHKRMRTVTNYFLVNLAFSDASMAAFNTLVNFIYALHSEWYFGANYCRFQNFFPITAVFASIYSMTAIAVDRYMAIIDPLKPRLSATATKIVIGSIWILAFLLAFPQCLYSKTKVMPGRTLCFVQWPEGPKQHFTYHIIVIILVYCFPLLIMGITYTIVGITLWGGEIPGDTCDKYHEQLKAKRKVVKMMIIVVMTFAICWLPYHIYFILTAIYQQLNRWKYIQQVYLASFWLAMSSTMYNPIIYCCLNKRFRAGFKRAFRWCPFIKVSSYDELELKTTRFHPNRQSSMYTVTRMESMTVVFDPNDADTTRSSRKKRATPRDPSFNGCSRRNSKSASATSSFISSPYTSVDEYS
Test: Calcium mobilization assay (FLIPR): enhancement of the Neurokinin B agonist response
Type: cell-based
Details: for EC50: agonist Neurokinin B with or without enhancer, Fluo-4 fluorescence, read-out: EC50 (efficacy as allosteric positive modulator of NK-3 receptor); for fold increase of the Neurokinin B agonistic effect: value in parentheses after EC50
Experimental: Calcium mobilization assay: HEK293 stably expressing NK3 were seeded at a density of 50,000 cells into poly-D-lysine coated 96-well blackwall, clear-bottom microtiter plates (Becton Dickinson Labware, Bedford, Mass.). One day later, the medium was removed, and 100 μl loading medium [HBSS without phenol red, supplemented with 20 mM HEPES-acid, and 2 μM Fluo-4AM solubilized in 0.5 mM Pluronic F-127/DMSO (Molecular Probes, Leiden, The Netherlands)] was added. Cells were loaded for 1 h at 37° C., washed twice with 150 μl assay buffer (loading buffer without Fluo-4 AM), and then 260 μl assay buffer was added. Cells were further pre-incubated at room temperature before adding the agonist Neurokinin B with or without enhancer in 50 μl assay buffer and then measured on a T-channel fluorimetric imaging plate reader (FLIPR, Molecular Devices, Sunnyvale, Calif.). Maximum change in fluorescence over baseline was used to determine agonist response.
The efficacy as allosteric positive modulators of neurokinin 3 (NK-3) receptors is given in the table below as EC50 and fold increase of the Neurokinin B agonistic effect. The EC50 of preferred compounds is <5.0 μM.

SMILES | EC50 | fold increase of the Neurokinin B agonistic effect
Cc1cc(Cl)ccc1OC(C)C(=O)N[C@H]1CC[C@@H](n2cc(C(=O)N3CCCC3)nn2)CC1 (relative stereo) [Example 4, 2-(4-Chloro-2-methyl-phenoxy)-N-{cis-4-[4-(pyrrolidine-1-carbonyl)-[1,2,3]triazol-1-yl]-cyclohexyl}-propionamide] | 560 nM | 1.7 fold
O=C(Cc1c(F)cccc1Cl)N[C@H]1CC[C@@H](n2cc(C(=O)N3CCCC3)nn2)CC1 [Example 1, 2-(2-Chloro-6-fluoro-phenyl)-N-{cis-4-[4-(pyrrolidine-1-carbonyl)-[1,2,3]triazol-1-yl]-cyclohexyl}-acetamide] | 3700 nM | 2.3 fold
O=C(c1cn([C@H]2CC[C@@H](NC(=O)C3(c4c(F)cccc4Cl)CCCC3)CC2)nn1)N1CCCC1 [Example 17, 1-(2-Chloro-6-fluoro-phenyl)-cyclopentanecarboxylic acid {cis-4-[4-(pyrrolidine-1-carbonyl)-[1,2,3]triazol-1-yl]-cyclohexyl}-amide] | 770 nM | 1.8 fold
O=C(Cc1c(F)cccc1Cl)N[C@H]1CC[C@@H](n2cc(C(=O)Nc3ccccc3)nn2)CC1 [Example 19, 1-{cis-4-[2-(2-Chloro-6-fluoro-phenyl)-acetylamino]-cyclohexyl}-1H-[1,2,3]triazole-4-carboxylic acid phenylamide] | 1800 nM | 1.6 fold

Results, then the compound that gave them:

EC50 | fold increase of the Neurokinin B agonistic effect | SMILES
200 nM | 1.5 fold | Cc1cccc(-c2cccc(C(=O)N[C@H]3CC[C@@H](n4cc(C(=O)N5CCCC5)nn4)CC3)c2)c1 [Example 2, 3′-Methyl-biphenyl-3-carboxylic acid {cis-4-[4-(pyrrolidine-1-carbonyl)-[1,2,3]triazol-1-yl]-cyclohexyl}-amide]
860 nM | 1.6 fold | O=C(N[C@H]1CC[C@@H](n2cc(C(=O)N3CCCC3)nn2)CC1)c1cccc(-c2ccc(F)cc2)c1 [Example 3, 4′-Fluoro-biphenyl-3-carboxylic acid {cis-4-[4-(pyrrolidine-1-carbonyl)-[1,2,3]triazol-1-yl]-cyclohexyl}-amide]
4200 nM | 3.2 fold | COc1ccccc1C(=O)N[C@H]1CC[C@@H](n2cc(C(=O)N3CCCC3)nn2)CC1 [Example 6, 2-Methoxy-N-{cis-4-[4-(pyrrolidine-1-carbonyl)-[1,2,3]triazol-1-yl]-cyclohexyl}-benzamide]
4500 nM | 5.6 fold | COc1ccc(C(=O)N[C@H]2CC[C@@H](n3cc(C(=O)N4CCCC4)nn3)CC2)cc1OC [Example 7, 3,4-Dimethoxy-N-{cis-4-[4-(pyrrolidine-1-carbonyl)-[1,2,3]triazol-1-yl]-cyclohexyl}-benzamide]
2300 nM | 2.2 fold | O=C(N[C@H]1CC[C@@H](n2cc(C(=O)N3CCCC3)nn2)CC1)c1ccc(Cl)cc1 [Example 9, 4-Chloro-N-{cis-4-[4-(pyrrolidine-1-carbonyl)-[1,2,3]triazol-1-yl]-cyclohexyl}-benzamide]
